These results are taken from patent US20260306506A1, “PYRIDO[4,3-D]PYRIMIDINE COMPOUNDS” (Pfizer Inc., priority 2023, published 2026).

Usually IC50 stands for the concentration needed to halve the response being measured. The Kd is the free concentration of one partner at which half of the binding sites on the other are occupied at equilibrium, for simple one-to-one binding.

The subject of test [1] is SW620 (colorectal cancer cell line). As to the kind of experiment: KRAS Cell Titer Glo (CTG) viability assay, SW620. In kind it is cell-based. Particulars: SW620, 7-day, geometric mean when n>1. The source says:
(§1) The CellTiter-Glo® (CTG) Luminescent Cell Viability Assay is a homogeneous method of determining the number of viable cells in culture based on quantitation of the ATP present, an indicator of metabolically active cells. The CTG is designed for use with multi-well formats, making it ideal for automated high-throughput screening (HTS), cell proliferation and cytotoxicity assays. The homogeneous assay procedure involves adding the single reagent (CellTiter-Glo® Reagent) directly to cells cultured in serum-supplemented medium. Cell washing, removal of medium and multiple pipetting steps are not required. The system detects as few as 15 cells per well in a 384-well format in 10 minutes after adding reagent and mixing.
(§2) Cells are grown in humidified 5% CO2 incubator at 37° C. using the culture conditions outlined below. All cell culture media reagents were purchased from Gibco. Cell lines purchased from ATCC: H358 (non-small cell lung cancer cell line), SW620 (colorectal cancer cell line), PANC08.13 (RPM11640+10% FBS+10 units/ml Insulin, pancreatic cancer cell line). Test and control compounds are dispensed as nanoliter drops according to desired final concentrations in 0.1% DMSO using Echo Acoustic Dispenser onto 384 assay plates (Corning, Cat #3764) prior to cell seeding. Cells were seeded in 40 μL volume per well at the following cell densities (cells per well): H358 (300), SW620 (750), PANC 08.13 (600). Cells are incubated in the presence of compound for 7-days. Viability is determined on Day 7 using CellTiter-Glo® (CTG) Luminescent Cell Viability Assay (Promega). CTG is added to a final volume of 20 μl per well and incubated at room temperature for 15 minutes before luminescence is captured using an EnVision Reader with LUM384 US protocol. Data is analyzed using Activity Base to determine compound response and will be represented either as a percent effect (PCTEFF) or percent control (PCTOCTL) as described: Zero percent effect control (ZPE) (Negative control)—100% DMSO. Hundred percent effect (HPE) (Positive control)—1 μM Trametinib (GSK1120212, MEK inhibitor) (4 nl of 10 mM and 36 nl of DMSO per well). The following equations/nomenclature are used (% Effect; PCTEFF) and (% of Control; PCTOCTL): PCTEFF: 100*(Raw_Data_Value−HPE/ZPE−HPE), PCTOCTL: 100*Raw_Data_Value/User_Defined_Array), where the User_Defined_Array is either summarized HPE or ZPE.
For orientation: ATP-based viability assays read luminescence as a measure of living cells.

In test [2] the test system is PANC08.13 (pancreatic cancer cell line). As to the kind of experiment: KRAS Cell Titer Glo (CTG) viability assay, Panc08.13. In kind it is cell-based. Particulars: Panc08.13, 7-day, geometric mean when n>1.
Text: as §1, §2

The test system of test [3] is H358 (non-small cell lung cancer cell line). Put plainly: KRAS Cell Titer Glo (CTG) viability assay, H358. In kind it is cell-based. Particulars: H358, 7-day, geometric mean when n>1.
Text: as §1, §2

Test [4] deals with T1, G12C GTPγS KRAS (aa2-184) (Homo sapiens, UniProt P01116, G12C).
T1 construct: G12CGDP KRAS (aa2-184); made in house
Put plainly: SPR binding (Biacore), GTPγS-loaded KRAS G12C. Particulars: for Kd: 10° C., geometric mean when n>1, read-out: KRasGTPgS G12C SPR KD; for KRasGTPgS G12C SPR t1/2: dissociative half-life, t1/2=0.693/koff. An excerpt: (§3) No additional regeneration was used.
(§4) Compound dissociation was monitored for at least 3600 seconds. […] No additional regeneration was used.

Test [5] addresses T2, G12V GTPγS KRAS (aa2-184) (Homo sapiens, UniProt P01116, G12V).
T2 construct: G12VGDP KRAS (aa2-184); made in house
Put plainly: SPR binding (Biacore), GTPγS-loaded KRAS G12V. Particulars: for Kd: 10° C., geometric mean when n>1, read-out: KRasGTPgS G12V SPR KD; for KRasGTPgS G12V SPR t1/2: dissociative half-life, t1/2=0.693/koff.
Text: as §3, §4
For orientation: Surface plasmon resonance follows binding to a sensor surface in real time, without labels.

Test [6] concerns the target G12V GDP KRAS (aa2-184) (Homo sapiens, UniProt P01116, G12V). Put plainly: biochemical.
Method: (§5) The binding affinity and kinetics were measured by Surface Plasmon Resonance (SPR) using Biacore 8K or 8K+ (Cytiva, Marlborough, MA) instruments. Recombinant, C-terminal site-specific biotinylated, wild-type (WT) KRASGDP (aa1-185), G12DGDP KRAS (aa1-185), G12CGDP KRAS (aa2-184), G12VGDP KRAS (aa2-184), WT HRASGDP (aa2-184) and WT NRASGDP (aa2-185) proteins were purified in presence of 1 μM GDP. The GDP-loaded KRAS proteins then went through nucleotide exchange with GTPγS (a non-hydrolysable analog of GTP) in the presence of alkaline phosphatase beads to obtain WTGTPγS KRAS (aa1-185), G12DGTPγS KRAS (aa1-185), G12CGTPγS KRAS (aa2-184), G12VGTPγS KRAS (aa2-184), WT HRASGTPγS (aa2-184) and WT NRASGTPγS (aa2-185). Binding measurements were performed parallelly in sets of either WT/G12D/G12C/G12V KRAS or WT K/H/N RAS proteins in GDP- and/or GTPγS-loaded forms, respectively.
(§6) Biacore instrument was desorbed and docked with a Series S Sensor Chip SA. […] Compound binding kinetics were measured in either multi-cycle or single-cycle kinetic format.
(§7) A 2-fold, 10-point serial dilution of test compounds was set-up in a 96-well microplate (Greiner; Cat #650101) with a top concentration of either 10 μM or 100 μM. Binding kinetics was measured at 10° C. by injecting serial dilution of compounds onto both reference and RAS immobilized channels at a flow rate of 100 μL/min and association time of 90 seconds. Compound dissociation was monitored for at least 400 seconds during each cycle. […]
(§8) A 3-fold, 6-point serial dilution of compounds was set-up in a deep 96-well microplate (Greiner Bio; Cat #780201) with the highest concentration of 1 μM (concentration range: 0.004-1 μM). Binding kinetics was measured at 10° C. by injecting serial dilutions of compounds in increasing order onto reference as well as RAS immobilized channels at a flow rate of 100 μL/min and association time of 120 seconds. Compound dissociation was monitored for at least 3600 seconds. […]
(§9) Both MCK and SCK data were processed and analyzed using Biacore Insight evaluation software (Cytiva, Marlborough, MA)). […]
Test [7] deals with T3, wild-type (WT) KRAS GDP (aa1-185) (Homo sapiens, UniProt P01116).
T3 construct: wild-type (WT) KRASGDP (aa1-185); made in house
As to the kind of experiment: SPR binding (Biacore), GDP-loaded WT KRAS. Particulars: 10° C., geometric mean when n>1.
Text: as §3, §4

In test [8] the target is G12C GDP KRAS (aa2-184) (Homo sapiens, UniProt P01116, G12C). Put plainly: biochemical.
Method: as §5, §6, §7, §8, §9
For test [9], the target named is T4, WT GTPγS KRAS (aa1-185) (Homo sapiens, UniProt P01116).
T4 construct: wild-type (WT) KRASGDP (aa1-185); made in house
Put plainly: SPR binding (Biacore), GTPγS-loaded WT KRAS. Particulars: for Kd: 10° C., geometric mean when n>1, read-out: KRasGTPgS SPR KD; for KRasGTPgS SPR t1/2: dissociative half-life, t1/2=0.693/koff.
Text: as §3, §4

The target in test [10] is T5, G12D GTPγS KRAS (aa1-185) (Homo sapiens, UniProt P01116, G12D).
T5 construct: G12DGDP KRAS (aa1-185); made in house
As to the kind of experiment: SPR binding (Biacore), GTPγS-loaded KRAS G12D. Particulars: for Kd: 10° C., geometric mean when n>1, read-out: KRasGTPgS G12D SPR KD; for KRasGTPgS G12D SPR t1/2: dissociative half-life, t1/2=0.693/koff.
Text: as §3, §4

Test [11] concerns the target G12D GDP KRAS (aa1-185) (Homo sapiens, UniProt P01116, G12D). As to the kind of experiment: biochemical.
Method: as §5, §6, §7, §8, §9
The mark [12] stands for this setting: Homo sapiens, PANC-08-13, 168 h.

Take `Oc1cc(-c2ncc3c(N4C[C@@H]5C[C@H](C4)[C@H](O)C5)nc(OC[C@@]45CCCN4C[C@H](F)C5)nc3c2F)c2c(F)c(F)ccc2c1` [Example 14, (1R,5R,6R)-3-[7-(7,8-difluoro-3-hydroxynaphthalen-1-yl)-8-fluoro-2-{[(2R,7aS)-2-fluorotetrahydro-1H-pyrrolizin-7a(5H)-yl]methoxy}pyrido[4,3-d]pyrimidin-4-yl]-3-azabicyclo[3.2.1]octan-6-ol]: the IC50 in test [1] (Homo sapiens, SW-620, 168 h) came to 35.3 nM; in [2] (setting [12]), 10.8 nM; in [3] (Homo sapiens, NCI-H358, 168 h), 41.6 nM.
Turning to `C#Cc1c(F)ccc2cc(O)cc(-c3nc4c5c(nc(OC[C@@]67CCCN6C[C@H](F)C7)nc5c3F)N3CCCC[C@H]3CO4)c12` [Example 23, 5-ethynyl-6-fluoro-4-[(8aS)-4-fluoro-2-{[(2R,7aS)-2-fluorotetrahydro-1H-pyrrolizin-7a(5H)-yl]methoxy}-8,8a,9,10,11,12-hexahydro-7-oxa-1,3,6,12a-tetraazabenzo[4,5]cyclohepta[1,2,3-de]naphthalen-5-yl]naphthalen-2-ol], the IC50 turned out to be 46 nM in [1] (Homo sapiens, SW-620, 168 h); 1.2 nM in test [2] (setting [12]); 74 nM in [3] (Homo sapiens, NCI-H358, 168 h).
In the same order, the values of `C#Cc1c(F)ccc2cc(O)cc(-c3ncc4c(N5C[C@@H]6C[C@H](C5)[C@H](O)C6)nc(OC[C@@]56CCCN5C[C@H](F)C6)nc4c3F)c12` [Example 10, (1R,5R,6R)-3-[7-(8-ethynyl-7-fluoro-3-hydroxynaphthalen-1-yl)-8-fluoro-2-{[(2R,7aS)-2-fluorotetrahydro-1H-pyrrolizin-7a(5H)-yl]methoxy}pyrido[4,3-d]pyrimidin-4-yl]-3-azabicyclo[3.2.1]octan-6-ol] are 35.7 nM, 8.15 nM and 26.9 nM.
In the case of `C#Cc1cccc2cc(O)cc(-c3ncc4c(N5C[C@@H]6C[C@H](C5)[C@H](O)C6)nc(OC[C@@]56CCCN5C[C@H](F)C6)nc4c3F)c12` [Example 9, (1R,5R,6R)-3-[7-(8-ethynyl-3-hydroxynaphthalen-1-yl)-8-fluoro-2-{[(2R,7aS)-2-fluorotetrahydro-1H-pyrrolizin-7a(5H)-yl]methoxy}pyrido[4,3-d]pyrimidin-4-yl]-3-azabicyclo[3.2.1]octan-6-ol], the IC50 in test [1] (Homo sapiens, SW-620, 168 h) was found to be 166 nM; in test [2] (setting [12]) it was 12.3 nM; in test [3] (Homo sapiens, NCI-H358, 168 h), 112 nM.
As for `C#Cc1c(F)ccc2cc(O)cc(-c3nc4c5c(nc(OC[C@@]67CCCN6CC(=C)C7)nc5c3F)N3CCCC[C@H]3CO4)c12` [Example 36, 5-ethynyl-6-fluoro-4-[(8aS)-4-fluoro-2-{[(7aS)-2-methylidenetetrahydro-1H-pyrrolizin-7a(5H)-yl]methoxy}-8,8a,9,10,11,12-hexahydro-7-oxa-1,3,6,12a-tetraazabenzo[4,5]cyclohepta[1,2,3-de]naphthalen-5-yl]naphthalen-2-ol], the Kd in test [4] is 0.372 nM; in test [5], 0.316 nM; in test [6], 0.286 nM; in test [7], 0.04 nM; in [8] it was 0.067 nM; in [9] it was 0.475 nM. Further, the Kd was 0.404 nM in [10] and 0.289 nM in test [11]. Moreover, the “KRasGTPgS G12C SPR t1/2” value in test [4] was determined as 11.0 h. For the same compound, the “KRasGTPgS G12V SPR t1/2” value in [5] amounted to 8.9 h. Besides, the IC50 stood at 18.7 nM in [1] (Homo sapiens, SW-620, 168 h); 2.7 nM in test [2] (setting [12]); 13.1 nM in test [3] (Homo sapiens, NCI-H358, 168 h). Moreover, in test [9], the “KRasGTPgS SPR t1/2” value is 6.0 h. The “KRasGTPgS G12D SPR t1/2” value in test [10] turned out to be 3.6 h.
As to `C#Cc1c(F)ccc2cc(O)cc(-c3ncc4c(N5CCC[C@@H](CC#N)C5)nc(OC[C@@]56CCCN5C[C@H](F)C6)nc4c3F)c12` [Example 15, {(3S)-1-[7-(8-ethynyl-7-fluoro-3-hydroxynaphthalen-1-yl)-8-fluoro-2-{[(2R,7aS)-2-fluorotetrahydro-1H-pyrrolizin-7a(5H)-yl]methoxy}pyrido[4,3-d]pyrimidin-4-yl]piperidin-3-yl}acetonitrile], the IC50 is 871 nM in [1] (Homo sapiens, SW-620, 168 h); 121 nM in test [2] (setting [12]); 493 nM in [3] (Homo sapiens, NCI-H358, 168 h).
For `C#Cc1c(F)c(F)cc2cc(O)cc(-c3nc4c5c(nc(OC[C@@]67CCCN6C[C@H](F)C7)nc5c3F)N3CCCC[C@H]3CO4)c12` [Example 32, 5-ethynyl-6,7-difluoro-4-[(8aS)-4-fluoro-2-{[(2R,7aS)-2-fluorotetrahydro-1H-pyrrolizin-7a(5H)-yl]methoxy}-8,8a,9,10,11,12-hexahydro-7-oxa-1,3,6,12a-tetraazabenzo[4,5]cyclohepta[1,2,3-de]naphthalen-5-yl]naphthalen-2-ol], the figures for the IC50 in [1], in [2] (setting [12]) and in test [3] were 45 nM, 2.1 nM and 48 nM, respectively.
With `Oc1cc(-c2ncc3c(N4C[C@@H]5C[C@H](C4)[C@H](O)C5)nc(OC[C@@]45CCCN4C[C@H](F)C5)nc3c2F)c2c(Cl)cccc2c1` [Example 20, (1R,5R,6R)-3-[7-(8-chloro-3-hydroxynaphthalen-1-yl)-8-fluoro-2-{[(2R,7aS)-2-fluorotetrahydro-1H-pyrrolizin-7a(5H)-yl]methoxy}pyrido[4,3-d]pyrimidin-4-yl]-3-azabicyclo[3.2.1]octan-6-ol], the IC50 in test [1] (Homo sapiens, SW-620, 168 h) is 164 nM; in test [2] (setting [12]), 45.2 nM; in test [3] (Homo sapiens, NCI-H358, 168 h) it was 142 nM.
As to `N#CC[C@@H]1CCCN(c2nc(OC[C@@]34CCCN3C[C@H](F)C4)nc3c(F)c(-c4cc(O)cc5ccc(F)c(F)c45)ncc23)C1` [Example 12, {(3S)-1-[7-(7,8-difluoro-3-hydroxynaphthalen-1-yl)-8-fluoro-2-{[(2R,7aS)-2-fluorotetrahydro-1H-pyrrolizin-7a(5H)-yl]methoxy}pyrido[4,3-d]pyrimidin-4-yl]piperidin-3-yl}acetonitrile], the IC50 in test [1] (Homo sapiens, SW-620, 168 h) came out at 136 nM; in test [2] (setting [12]) it was 19.8 nM; in test [3] (Homo sapiens, NCI-H358, 168 h), 115 nM.
Turning to `C#Cc1c(F)c(F)cc2cc(O)cc(-c3nc4c5c(nc(OC[C@@]67CCCN6C[C@H](F)C7)nc5c3F)N3CCCC[C@H]3CO4)c12` [Example 33, 5-ethynyl-6,7-difluoro-4-[(8aS)-4-fluoro-2-{[(2R,7aS)-2-fluorotetrahydro-1H-pyrrolizin-7a(5H)-yl]methoxy}-8,8a,9,10,11,12-hexahydro-7-oxa-1,3,6,12a-tetraazabenzo[4,5]cyclohepta[1,2,3-de]naphthalen-5-yl]naphthalen-2-ol], the Kd in test [4] came to 0.205 nM; in test [5], 0.172 nM; in test [9], 0.168 nM; in test [10], 0.119 nM. In [4], the “KRasGTPgS G12C SPR t1/2” value worked out at 17.6 h. Besides, in [5], the “KRasGTPgS G12V SPR t1/2” value came to 12.7 h. In addition, the IC50 in test [1] came to 6.6 nM; in test [2], 1.1 nM; in [3], 3.9 nM. For the same compound, the “KRasGTPgS SPR t1/2” value in test [9] is recorded as 12.7 h. For the same compound, in test [10], the “KRasGTPgS G12D SPR t1/2” value came out at 9.9 h.
